Measured values reported in the supplement of paper PMC11451515.

Key:
Details in all cases: 48 h
[1] = tested on: P12-Ichikawa; experiment: AUC of viability dose-response curve (% viability x log10 dose units); higher = less sensitive
Summary of the method: (§1)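 Leukemia cells adapted to each medium were seeded at 500 or 1000 cells/well in 1536-well plates and dosed with library compounds in DMSO at 11 threefold doses from 47 μM to 0.79 nM for 48 h at 37°C. CellTiter-Glo One luminescence was normalised per plate to DMSO and cell-free wells, then fitted with a four-parameter log-logistic model over log10 doses. Area under the curve was taken from this fit by the trapezoidal rule, with curves above full viability scaled and curves failing quality control removed.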

[2] = tested on: SEM cells; experiment: as above
Summary of the method: as §1

[3] = tested on: NOMO1; experiment: cell viability relative to DMSO control; higher = less cytotoxic
Summary of the method: (§2)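 Cells were incubated for 48 h at 37°C before CellTiter-Glo One luminescence was read. The cells were NOMO1 or SEM (500 cells/well) or P12-Ichikawa (1000 cells/well) leukemia cells, adapted for at least four passages in each medium and seeded in 1536-well plates (5 μl). Dosing used library compounds in DMSO applied by pin over 11 threefold points, 47 μM to 0.79 nM. Viability is the per-plate percentage of DMSO wells, with cell-free wells as background.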

[4] = tested on: P12-Ichikawa; experiment: as above
Summary of the method: as §2

[5] = tested on: SEM cells; experiment: as above
Summary of the method: as §2

[6] = tested on: NOMO1; experiment: AUC of viability dose-response curve (% viability x log10 dose units); higher = less sensitive
Summary of the method: as §1

COc1ccc(N(C(=O)Oc2c(C)cccc2C)c2ccnc(Nc3ccc(N4CCN(C)CC4)cc3)n2)c(OC)c1
AUC of viability dose-response curve
Details | HPLM + 10% dialyzed FBS | RPMI 5 mM glucose + 10% FBS | RPMI 5 mM glucose + 10% dialyzed FBS
[1] | 466 | 457 | 459
[2] | 456 | 455 | 451

CC[C@]1(O)C[C@H]2CN(CCC3=C([NH]C4=C3C=CC=C4)[C@@](C2)(C(=O)OC)C5=CC6=C(C=C5OC)N(C=O)[C@H]7[C@](O)([C@H](OC(C)=O)[C@]8(CC)\C=C/C[N@@]9CC[C@]67[C@H]89)C(=O)OC)C1
cell viability [%]
Details | [3] | [4] | [5]
HPLM + 10% dialyzed FBS, 0.000781 µM | 119 | 118 | 114
HPLM + 10% dialyzed FBS, 0.00234 µM | 117 | 117 | 104
HPLM + 10% dialyzed FBS, 0.00702 µM | 127 | 119 | 95.2
HPLM + 10% dialyzed FBS, 0.0211 µM | 110 | 82.3 | 84
HPLM + 10% dialyzed FBS, 0.0632 µM | 35.3 | 21.6 | 36.5
HPLM + 10% dialyzed FBS, 0.19 µM | 34.7 | 17.7 | 24.7
HPLM + 10% dialyzed FBS, 0.569 µM | 43.2 | 11 | 20.7
HPLM + 10% dialyzed FBS, 1.71 µM | 47 | 10.2 | 23.2
HPLM + 10% dialyzed FBS, 5.12 µM | 47.1 | 11.3 | 16.4
HPLM + 10% dialyzed FBS, 15.4 µM | 50.9 | 9.28 | 10.7
HPLM + 10% dialyzed FBS, 46.1 µM | 41.6 | 8.54 | 7.67
RPMI 5 mM glucose + 10% FBS, 0.000781 µM | 120 | 115 | 70.8
RPMI 5 mM glucose + 10% FBS, 0.00234 µM | 118 | 109 | 70.8
RPMI 5 mM glucose + 10% FBS, 0.00702 µM | 127 | 112 | 67
RPMI 5 mM glucose + 10% FBS, 0.0211 µM | 116 | 75.1 | 39.6
RPMI 5 mM glucose + 10% FBS, 0.0632 µM | 38.9 | 19.5 | 13.4
RPMI 5 mM glucose + 10% FBS, 0.19 µM | 24.4 | 15.9 | 11
RPMI 5 mM glucose + 10% FBS, 0.569 µM | 23 | 9.98 | 12
RPMI 5 mM glucose + 10% FBS, 1.71 µM | 30.7 | 8.03 | 8.09
RPMI 5 mM glucose + 10% FBS, 5.12 µM | 28.6 | 8.69 | 4.93
RPMI 5 mM glucose + 10% FBS, 15.4 µM | 30.4 | 8.09 | 3.51
RPMI 5 mM glucose + 10% FBS, 46.1 µM | 25.8 | 6.94 | 2.93
RPMI 5 mM glucose + 10% dialyzed FBS, 0.000781 µM | – | 105 | 99.8
RPMI 5 mM glucose + 10% dialyzed FBS, 0.00234 µM | – | 108 | 108
RPMI 5 mM glucose + 10% dialyzed FBS, 0.00702 µM | – | 110 | 106
RPMI 5 mM glucose + 10% dialyzed FBS, 0.0211 µM | – | 106 | 90.3
RPMI 5 mM glucose + 10% dialyzed FBS, 0.0632 µM | – | 35.6 | 46.3
RPMI 5 mM glucose + 10% dialyzed FBS, 0.19 µM | – | 34.6 | 18
RPMI 5 mM glucose + 10% dialyzed FBS, 0.569 µM | – | 20.5 | 16.2
RPMI 5 mM glucose + 10% dialyzed FBS, 1.71 µM | – | 12 | 18.1
RPMI 5 mM glucose + 10% dialyzed FBS, 5.12 µM | – | 12.1 | 11.5
RPMI 5 mM glucose + 10% dialyzed FBS, 15.4 µM | – | 12.8 | 6.29
RPMI 5 mM glucose + 10% dialyzed FBS, 46.1 µM | – | 12.6 | 5.26

AUC of viability dose-response curve
Details | HPLM + 10% dialyzed FBS | RPMI 5 mM glucose + 10% FBS | RPMI 5 mM glucose + 10% dialyzed FBS
[1] | 185 | 180 | 224
[6] | 272 | 239 | 264

O=C(NOC[C@H](O)CO)c1ccc(F)c(F)c1Nc1ccc(I)cc1F
AUC of viability dose-response curve
Details | [1] | [2] | [6]
HPLM + 10% dialyzed FBS | 434 | 354 | 261
RPMI 5 mM glucose + 10% FBS | 384 | 362 | 274
RPMI 5 mM glucose + 10% dialyzed FBS | 445 | 347 | 260

CC(C)NCC(O)c1ccc(O)c(O)c1 (centres undefined)
AUC of viability dose-response curve
Details | [1] | [2] | [6]
HPLM + 10% dialyzed FBS | 389 | 455 | 376
RPMI 5 mM glucose + 10% FBS | 394 | 427 | 389
RPMI 5 mM glucose + 10% dialyzed FBS | 407 | 457 | 391

Fc1ccc(CNc2ncnc3ccc(F)cc23)cc1
AUC of viability dose-response curve
Details | HPLM + 10% dialyzed FBS | RPMI 5 mM glucose + 10% FBS | RPMI 5 mM glucose + 10% dialyzed FBS
[1] | 453 | 429 | 429
[6] | 445 | 452 | 419
